Test results taken from publication PMC2377083, “IDN 5390: an oral taxane candidate for protracted treatment schedules” (British Journal of Cancer, 2003).
Where two headings read alike, the source gives them in different places.

Key:
[1] = system: MX-1 mammary tumour xenograft; conditions: for LCK (1 g) / Max BWL (%) / Tox/Tot / Max TWI%: qd × 4–5/w × 3w
[2] = system: IGROV-1 PTX-resistant ovarian tumour xenograft; test: Antitumour activity on IGROV-1 xenograft; conditions: p.o., qd × 5/w × 3w, 120 mg kg^−1
Description: All the experiments were carried out using female athymic nude CD-1 mice, 8–11 weeks old (Charles River, Calco, Italy). The mice were maintained in laminar flow rooms with constant temperature and humidity.
Taxanes were dissolved by adding absolute ethanol and Cremophor ELP (both 5% of the final volume), in that sequence, on a magnetic stirrer. […] After dilution, the drug solutions were always kept on ice. […] (Milano, Italy) and, just before use, it was diluted, by slowly adding 0.9% NaCl and occasionally stirring the solution (final Polysorbate 80: 10%, v v^−1). […] When higher doses were to be given, larger volumes were injected.
Tumour lines were maintained in vivo by successive s.c. transplants of tumour fragments in animal flanks.
For chemotherapy experiments, tumour fragments (about 2 × 2 × 2 mm), obtained from tumour lines, were implanted s.c. Each control or drug-treated group included five or six mice bearing bilateral s.c. tumours. Tumours were implanted on day 0, and tumour growth was followed by biweekly measurements of tumour diameters with a vernier caliper. Tumour weight (TW) was calculated according to the formula: TW (mg)=tumour volume (mm^3)=d^2 × D/2, where d and D are the shortest and the longest diameter, respectively. Different treatment routes (i.v., s.c. or p.o.) and schedules (daily or intermittent) were investigated. […] Control mice were injected with the solvent solution.
Experimental groups were eliminated when mean TW was about 1.5±0.5 g, or after 100 days.
For statistical analysis, tumour weights in different groups of treated mice were compared on day of TWI% evaluation, by Student's t-test (two-tailed). P⩽0.05 was considered significant.
The tolerability of the compound was assessed in tumour-bearing mice as follows: (a) lethal toxicity, that is, any death in treated mice without or with small (⩽300 mg) tumours, or occurring before any control death; (b) body weight loss % (BWL%)=100–(BW on day x/BW on day 1 × 100), where x represents a day after or during the treatment period. The maximal BWL values are reported; and (c) vesicant toxicity defined as the appearance of ulcers and/or inflammation at the injection site where the drugs were delivered s.c.

tubulin = test: Tubulin polymerisation assay in IGROV-1/Pt1 cells; type: cell-based, human; conditions: 24 h
Description: For tubulin polymerisation assay, IGROV-1/Pt1 cells were treated with PTX or IDN 5390 at the indicated concentrations for 24 h. Cells were then processed as previously described ([Cassinelli et al, 2001]) in order to separate cellular fractions containing soluble cytosolic or polymerised cytoskeletal tubulin. Samples were electrophoresed by sodium dodecyl sulphate (SDS)–PAGE (10% resolving gel and 3% stacking gel) and blotted onto nitrocellulose membranes. The distribution of tubulin was analysed by immunoblotting, using a rabbit polyclonal antitubulin antibody (BioMakor, Revohot, Israel).

[3] = 2 × 90 mg kg^−1 p.o., up to 5 weeks, 50 treatments

SMILES: CC(=O)O[C@@]1([C@@H]2/C(C)=C(/O)C(=O)C3=C(C)[C@@H](OC(=O)[C@H](O)[C@H](CC(C)C)NC(=O)OC(C)(C)C)C[C@@](O)([C@H]2OC(=O)c2ccccc2)C3(C)C)CO[C@@H]1CCO [IDN 5390, 13-(N-Boc-β-isobutylisoserinyl)-10β-dehydro-C-seco-10-deacetylbaccatin III]
- antitumour efficacy ([1]; 30 mg kg^−1 p.o. twice a day, start when tumours averaged 100 mg): not very effective
- tumours exhibiting CR at the end of the experiment ([1]; 2 × 90 mg kg^−1 p.o., 5 weeks, end of the experiment (100 days)): six out of 10
- lethal toxicity [1, 3]: no lethal toxicity
- max BWL [1, 3]: 11%
- LCK (1 g) ([1]; p.o., 120 mg kg^−1, from day 1): 1.1
- Max BWL (%) ([1]; p.o., 120 mg kg^−1, from day 1): 5%
- Tox/Tot ([1]; p.o., 120 mg kg^−1, from day 1): 0/5
- Max TWI% ([1]; p.o., 120 mg kg^−1, from day 1, day 25): 82(25) %
- TWI ([1]; s.c., all doses, after 3 weeks of treatment): > 80%
- LCK (1 g) ([1]; s.c., 60 mg kg^−1, from day 1): 1.4
- Max BWL (%) ([1]; s.c., 60 mg kg^−1, from day 1): 3%
- Tox/Tot ([1]; s.c., 60 mg kg^−1, from day 1): 0/3
- Max TWI% ([1]; s.c., 60 mg kg^−1, from day 1, day 29): 83(29) %
- LCK (1 g) ([1]; s.c., 90 mg kg^−1, from day 1): 2.7
- Max BWL (%) ([1]; s.c., 90 mg kg^−1, from day 1): 3.5%
- Tox/Tot ([1]; s.c., 90 mg kg^−1, from day 1): 0/5
- Max TWI% ([1]; s.c., 90 mg kg^−1, from day 1, day 29): 97(29) %
- LCK (1 g) ([1]; s.c., 120 mg kg^−1, from day 1): 1.7–3.1
- Max BWL (%) ([1]; s.c., 120 mg kg^−1, from day 1): 6–7.5%
- Tox/Tot ([1]; s.c., 120 mg kg^−1, from day 1): 1/10
- Max TWI% ([1]; s.c., 120 mg kg^−1, from day 1, day 25, P<0.05 vs p.o.): 93–96 ^*(25) %
- LCK (1 g) [2]: 2.2
- Max BWL (%) [2]: 13%
- TWI% (day 27) [2]: 73%
- Tox/Tot [2]: 0/4
- tubulin polymerisation (tubulin; equitoxic concentrations (IC80): IDN 5390 300, PTX 100 ng ml^−1): comparable extent of tubulin polymerisation
- tubulin polymerisation (tubulin; same concentration (100 ng ml^−1), vs PTX): less effective than the parent drug
